In patent US20100256357A1, “HETEROCYCLES USEFUL AS INHIBITORS OF CARBONIC ANHYDRASE” (Agouron Pharmaceuticals, Inc., priority 2006, published 2010):

Target: T1, human CA-II (Homo sapiens, UniProt P00918)
T1 construct: purchased Sigma-Aldrich C6165
Assay: Carbonic Anhydrase-II (CA-II) Fluorimetric Assay-IC50 Determination
Type: biochemical
Conditions: for inhibition at 0.1 µM: at 100 nM (c7); for inhibition at 0.1 µM / inhibition at 0.01 µM: read-out: CA-II % inhibition at concentration of column 7; for IC50: given instead of Kd (ND), read-out: CA-II IC50; for inhibition at 0.01 µM: at 10 nM (c7)
Method: Carbonic Anhydrase-II (CA-II) Fluorimetric Assay-IC50 Determination
Compounds were diluted in DMSO at the concentration of 1 mM, then 50 μM and transferred to a 96-well plate for further dilutions (1:3 dilution, 11 points) in duplicate. Highest final concentration of compound in this CA-II Fluorimetric assay is 1 μM. Assays were conducted in a final volume of 100 μL in 50 mM Tris/HCl (pH 7.6), 100 mM Na2SO4 and 0.005% Tween-20 in a 96-well black assay plate. Fluorescein diacetate was used as the substrate. Enzyme inhibition was determined by pipetting 8 μL of human CA-II (5 nM, from Sigma-Aldrich, product #: C6165) into assay plate contained 2 μL of compound and 2 μL of substrate (10 μM) in 88 μL of assay buffer. The rate of the hydrolysis of fluorescein diacetate were measured spectrophometrically at 488 nm (excitation), 538 nm (emission) and 530 nm (cutoff) using a Molecular Devices SpectraMax M2 fluorescence reader at 25° C.

inhibition at 0.1 µM [%] | IC50 [nM] | inhibition at 0.01 µM [%] | SMILES
99 | 2.84 |  | NS(=O)(=O)c1ccc(-n2nc(C(=O)N3CC4CCCC3C4)nc2Cc2ccccc2)cc1 (centres unmarked) [Example R-26, 4-[3-(6-azabicyclo[3.2.1]oct-6-ylcarbonyl)-5-benzyl-1H-124-triazol-1-yl]bezenesulfonamide]
99 |  |  | NS(=O)(=O)c1ccc(-n2nc(C(=O)N3CCCN(C=O)CC3)nc2Cc2ccccc2)cc1 [Example R-27, 4-(5-benzyl-3-[(4-formyl-14-diazepan-1-yl)carbonyl]-1H-124-triazol-1-yl)benzenesulfonamide]
99 |  |  | CN(C(=O)c1nc(Cc2ccccc2)n(-c2ccc(S(N)(=O)=O)cc2)n1)C(C1CC1)C1CC1 [Example R-28, 1-[4-(aminosulfonyl)phenyl)-5-benzyl-N-(dicyclopropylmethyl)-N-methyl-1H-124-triazole-3-carboxamide]
98 |  |  | CCCN(C(=O)c1nc(Cc2ccccc2)n(-c2ccc(S(N)(=O)=O)cc2)n1)[C@@H](C)CO [Example R-29, 1-[4-(aminosulfonyl)phenyl]-5-benzyl-N-[(1S)-2-hydroxy-1-methylethyl]-N-propyl-1H-124-triazole-3-carboxamide]
100 | 2.45 |  | CN(C(=O)c1nc(Cc2ccccc2)n(-c2ccc(S(N)(=O)=O)cc2)n1)C1CCCC1 [Example R-30, 1-[4-(aminosulfonyl)phenyl]-5-benzyl-N-cyclopentyl-N-methyl-1H-124-triazole-3-carboxamide]
100 | 3.03 |  | CC(C)CCN(C)C(=O)c1nc(Cc2ccccc2)n(-c2ccc(S(N)(=O)=O)cc2)n1 [Example R-31, 1-[4-(aminosulfonyl)phenyl]-5-benzyl-N-methyl-N-(3-methylbutyl)-1H-124-triazole-3-carboxamide]
98 | 3.56 |  | NS(=O)(=O)c1ccc(-n2nc(C(=O)N3CCOCC3)nc2Cc2ccccc2)cc1 [Example R-32, 4-[5-benzyl-3-(morpholin-4-ylcarbonyl)-1H-124-triazol-1-yl]benzenesulfonamide]
101 |  |  | NS(=O)(=O)c1ccc(-n2nc(C(=O)NC3Cc4ccccc4C3)nc2Cc2ccccc2)cc1 [Example R-33, 1-[4-(aminosulfonyl)phenyl]-5-benzyl-N-(23-dihydro-1H-inden-2-yl)-1H-124-triazole-3-carboxamide]
99 | 2.99 |  | CCN(CCOC)C(=O)c1nc(Cc2ccccc2)n(-c2ccc(S(N)(=O)=O)cc2)n1 [Example R-34, 1-[4-(aminosulfonyl)phenyl]-5-benzyl-N-ethyl-N-(2-methoxyethyl)-1H-124-triazole-3-carboxamide]
101 |  |  | NS(=O)(=O)c1ccc(-n2nc(C(=O)NCCNc3ccccn3)nc2Cc2ccccc2)cc1 [Example R-35, 1-[4-(aminosulfonyl)phenyl]-5-benzyl-N-[2-(pyridin-2-ylamino)ethyl]-1H-124-triazole-3-carboxamide]
100 | 3.12 |  | CCCCN(CCC)C(=O)c1nc(Cc2ccccc2)n(-c2ccc(S(N)(=O)=O)cc2)n1 [Example R-36, 1-[4-(aminosulfonyl)phenyl]-5-benzyl-N-butyl-N-propyl-1H-124-triazole-3-carboxamide]
99 | 2.89 |  | CCc1ccc(CN(C)C(=O)c2nc(Cc3ccccc3)n(-c3ccc(S(N)(=O)=O)cc3)n2)cc1 [Example R-37, 1-[4-(aminosulfonyl)phenyl]-5-benzyl-N-(4-ethylbenzyl)-N-methyl-1H-124-triazole-3-carboxamide]
100 | 3.13 |  | Cc1ccc(CN(C)C(=O)c2nc(Cc3ccccc3)n(-c3ccc(S(N)(=O)=O)cc3)n2)cc1 [Example R-38, 1-[4-(aminosulfonyl)phenyl]-5-benzyl-N-methyl-N-(4-methylbenzyl)-1H-124-triazole-3-carboxamide]
97 | 3.62 |  | CCN(CC)CCN(CC)C(=O)c1nc(Cc2ccccc2)n(-c2ccc(S(N)(=O)=O)cc2)n1 [Example R-39, 1-[4-(aminosulfonyl)phenyl]-5-benzyl-N-[2-(diethylamino)ethyl]-N-ethyl-1H-124-triazole-3-carboxamide]
98 | 3.34 |  | CC(C)CN(CC(C)C)C(=O)c1nc(Cc2ccccc2)n(-c2ccc(S(N)(=O)=O)cc2)n1 [Example R-40, 1-[4-(aminosulfonyl)phenyl]-5-benzyl-NN-diisobutyl-1H-124-triazole-3-carboxamide]
99 |  |  | CCN(CCC#N)C(=O)c1nc(Cc2ccccc2)n(-c2ccc(S(N)(=O)=O)cc2)n1 [Example R-41, 1[4-(aminosulfonyl)phenyl]-5-benzyl-N-(2-cyanoethyl)-N-ethyl-1H-124-triazole-3-carboxamide]
98 | 3.78 |  | CN(CCOc1ccccc1)C(=O)c1nc(Cc2ccccc2)n(-c2ccc(S(N)(=O)=O)cc2)n1 [Example R-42, 1-[4-(aminosulfonyl)phenyl]-5-benzyl-N-methyl-N-(2-phenoxyethyl)-1H-124-triazole-3-carboxamide]
100 |  |  | CCN(CCN(C)C)C(=O)c1nc(Cc2ccccc2)n(-c2ccc(S(N)(=O)=O)cc2)n1 [Example R-43, 1-[4-(aminosulfonyl)phenyl]-5-benzyl-N-[2-(dimethylamino)ethyl]-N-ethyl-1H-124-triazole-3-carboxamide]
 |  | 93 | CN(Cc1n[nH]c2c1CCCC2)C(=O)c1nc(Cc2ccccc2)n(-c2ccc(S(N)(=O)=O)cc2)n1 [Example R-44, 1-[4-(aminosulfonyl)phenyl]-5-benzyl-N-methyl-N-(4567-tetrahydro-1H-indazol-3-ylmethyl)-1H-124-triazole-3-carboxamide]
 |  | 95 | CC(C)N(CC(O)c1ccccc1)C(=O)c1nc(Cc2ccccc2)n(-c2ccc(S(N)(=O)=O)cc2)n1 (centres unmarked) [Example R-45, 1-[4-(aminosulfonyl)phenyl]-5-benzyl-N-(2-hydroxy-2-phenylethyl)-N-isopropyl-1H-124-triazole-3-carboxamide]
 |  | 96 | CC1(c2ccccc2)CN(C(=O)c2nc(Cc3ccccc3)n(-c3ccc(S(N)(=O)=O)cc3)n2)CCO1 (centres unmarked) [Example R-46, 4-{5-benzyl-3-[(2-methyl-2-phenylmorpholin-4-yl)carbonyl]-1H-124-triazol-1-yl}benzenesulfonamide]
 |  | 90 | C[C@@H]([C@@H](O)c1ccccc1)N(C)C(=O)c1nc(Cc2ccccc2)n(-c2ccc(S(N)(=O)=O)cc2)n1 [Example R-47, 1-[4-(aminosulfonyl)phenyl]-5-benzyl-N-[(1S2S)-2-hydroxy-1-methyl-2-phenylethyl]-N-methyl-1H-124-triazole-3-carboxamide]
 |  | 97 | CN(CCc1ccccc1)C(=O)c1nc(Cc2ccccc2)n(-c2ccc(S(N)(=O)=O)cc2)n1 [Example R-48, 1-[4-(aminosulfonyl)phenyl]-5-benzyl-N-methyl-N-(2-phenylethyl)-1H-124-triazole-3-carboxamide]
 |  | 96 | CN(Cc1nc2ccc(F)cc2[nH]1)C(=O)c1nc(Cc2ccccc2)n(-c2ccc(S(N)(=O)=O)cc2)n1 [Example R-49, 1-[4-(aminosulfonyl)phenyl]-5-benzyl-N-[(6-fluoro-1H-benzimidazol-2-yl)methyl]-N-methyl-1H-124-triazole-3-carboxamide]
